Series [1] relates to bortezomib or carfilzomib-resistant MM and WM cell lines. Briefly: VLX1570-sensitivity screen (Celltiter Glo viability assay). Type of series: cell-based, human. Particulars: bortezomib/carfilzomib-resistant tumor cells. The source says:
FIG. 5 is a graph plotting sensitivity of bortezomib or carfilzomib-resistant tumor cells to drugs with a mechanism directed at targets upstream of the 20S proteasome. An inhibitor of the deubiquitinase (DUB) enzymes located in the 19S cap of the proteasome that are upstream of β5 and β1i, was used.

In a further series the test system is OPM2 cell line (WT). Briefly: MTS assay, OPM2 WT. The class given is cell-based. Particulars: Homo sapiens, OPM-2. The source says: (§1) FIGS. 1A-1C show the characterization of bortezomib-resistance (BR) models, established by subjecting plasma cell cancer cell lines (n=6) chronic drug exposure. FIG. 1A is a graph plotting the results of an MTS assay for an OPM2 cell line (representative model).
(§2) To investigate the mechanism of induction of bortezomib resistance, preclinical models of acquired bortezomib resistance (BR) were developed using human MM and WM cell lines.
(Formazan colour is commonly taken as a measure of viable cells.)

The subject of the next series is OPM2 BR derivative. The experiment in a line: MTS assay, OPM2 BR derivative. Type of series: cell-based. Conditions: Homo sapiens, OPM-2.
Description: as §1, §2

A further series deals with BCWM.1 cell line. The experiment in a line: MTS viability assay, BCWM.1. Type of series: cell-based, human. The method, then: (§3) FIGS. 4A-4D show the characterization of BR WM models, established by subjecting WM cancer cell lines (n=3) chronic drug exposure. […] FIG. 4C is a graph plotting relative fluorescence units in an assay to examine PSMB5 enzyme function by flow cytometry.
(§4) Twenty thousand cells/200 μl in quadruplicates were incubated with serially diluted b-AP15 (1-1000 nmol/l) in 96-well plates at 37° C. for 72 hours. MTS (3-(4,5-dimethylthiazol-2-yl)-5-(3-carboxymethoxyphenyl)-2-(4-sulfophenyl)-2H-tetrazolium) reagent (Molecular Probes, Eugene, Oreg.) was added at 40 μl/well and the plates were further incubated at 37° C. for 3 hours and the developed color was read at 490 nm using a BioTek synergy HT plate reader against blanks with no cells.

The next series relates to BCWM.1/BR. The experiment in a line: MTS viability assay, BCWM.1/BR. The class given is cell-based, human. The method, then: as §3, §4
Another series concerns MWCL-1 cells. The experiment in a line: MTS viability assay, MWCL-1. Type of series: cell-based, human. Conditions: Homo sapiens, MTS assay. The method, then: as §4
A further series concerns MWCL-1/BR. The experiment in a line: MTS viability assay, MWCL-1/BR. The class given is cell-based, human. Particulars: Homo sapiens; MTS assay, MWCL-1/BR. The method, then:
as §4

The next series relates to RPCI-WM1. The experiment in a line: MTS viability assay, RPCI-WM1. Particulars: Homo sapiens, MTS assay. The class given is cell-based, human. The method, then: as §4
Another series concerns RPCI-WM1/BR. The experiment in a line: MTS viability assay, RPCI-WM1/BR. The class given is cell-based, human. Particulars: Homo sapiens, MTS assay. The method, then: as §4
Series [2] deals with BR human MM and WM cell lines. Briefly: Growth insensitivity of BR cell lines vs WT counterparts. The class given is cell-based. Particulars: BR cell lines compared to respective WT counterparts.
Description: as §2

Series [3] concerns the target T1, 20S proteasome b5 subunit (Homo sapiens, UniProt P28074).
T1 construct: Cells were lysed at 4×10^6 cells/ml in proteasomal activity assay buffer; endogenous in cells; host or cells: BCWM.1, MWCL-1, RPCI-WM1 and their BR subclones (lysates)
T1 sequence (P28074 60-263): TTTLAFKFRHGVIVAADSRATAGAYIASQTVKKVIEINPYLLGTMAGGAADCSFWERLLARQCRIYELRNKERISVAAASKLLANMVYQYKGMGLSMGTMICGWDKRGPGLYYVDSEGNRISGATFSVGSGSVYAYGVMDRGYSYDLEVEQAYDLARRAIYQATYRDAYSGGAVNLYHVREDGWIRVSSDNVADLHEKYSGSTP
The experiment in a line: Proteasomal activity assay, chymotrypsin-like (LLVY-AMC), WM cells. The class given is biochemical. Particulars: 10 nmol/l; WT and BR WM cells. The method, then:
FIGS. 10A and 10B are a series of graphs plotting the effect of b-AP15 treatment on 20S proteasome, b5-subunit (chymotrypsin-like) catalytic activity in WT and BR WM cells.
Cells were lysed at 4×10^6 cells/ml in proteasomal activity assay buffer [assay buffer; 25 mmol/1 HEPES buffer, pH7.5 containing 0.5 mmol/1 EDTA, 0.05% Nonidet P-40, 0.01% sodium dodecyl sulfate (SDS)] and immediately used in the assay. Enzyme reactions were performed in 96-well plates with 100 μl of final volume containing […] fluorogenic peptide substrates. The substrates used were LLVY-AMC for chymotrypsin like activity, LLE-AMC for caspase-like activity and LRR-AMC for trypsin-like activity. Reactions were incubated at 37° C. for 1 hour and fluorescence was measured at 360/460 using a BioTek synergy HT plate reader (BioTek, Winooski, Vt.).

A further series addresses β5/PSMB5 (Homo sapiens, UniProt P28074). Briefly: 26S proteasome activity, Suc-LLVY-AMC cleavage, WT and BR plasma cell cancer cells. The class given is biochemical. Conditions: in the presence of bortezomib. The method, then:
FIGS. 3A-3C are a series of graphs showing that bortezomib resistance is associated with increased proteasomal enzymatic activity.
Studies were performed to investigate whether an increase in β1i and β5 proteins corresponded with increased protease activity. WT and BR cancer cells were incubated with β1i specific (Ac-PAL-AMC substrate) and β5 specific (Suc-LLVY-AMC substrate) fluorogenic peptides (condition details in FIG. 3 description above). β5 chymotryptic activity (primary target of bortezomib) was assessed first and found in BR cells.

Series [4] deals with treatment naïve MM patients. Conditions: bortezomib-based therapies; cited from earlier work.
The subject of another series is MCL patients. Conditions: bortezomib-based therapies; cited from earlier work.
For the next series, the system named is WT and BR WM cells. Briefly: Mitochondrial outer membrane permeability (TMRM), WM cell lines. The class given is cell-based, human. Particulars: pre-treatment with pan-caspase inhibitor. The method, then:
Cells were treated with different agents for 48 hours and assessed for MOMP using tetramethylrhodamine methyl ester [TMRM] (Life Technologies). TMRM was directly added to the cell cultures at 100 nmol/1 concentrations and incubated at 37° C. in the dark for 15 minutes. At the end of the incubation, cells were washed twice with cold PBS containing 2% FBS and analyzed. The cells were washed for fluorescence (FL2) and analyzed by BD Accuri, the C6 flow cytometer and its software. Data from at least 20,000 events per sample were collected and analyzed. TMRM-negative (%) cells were calculated to determine % MOMP.

Entries after “also recorded” stand apart in the source; their conditions may differ. Peptide text beside a SMILES is read from it. * marks the point of attachment. Cbz = O=C(OCc1ccccc1)*; CH2F = FC*

With `C=CC(=O)N1CC/C(=C\c2ccc(F)c([N+](=O)[O-])c2)C(=O)/C(=C/c2ccc(F)c([N+](=O)[O-])c2)C1` [VLX1570], the cytotoxicity result in [1] was “comparable cytotoxicity”.

For `CC(C)C[C@H](NC(=O)[C@H](Cc1ccccc1)NC(=O)c1cnccn1)B(O)O` [bortezomib], the IC50 (usually the concentration that inhibits the measured activity by half) with OPM2 cell line (WT) is 6.14 nM; in the series on OPM2 BR derivative, greater than 50 nM; in the series on BCWM.1 cell line (Homo sapiens, BCWM1, MTS assay) it was 18 nM; in the series on BCWM.1 cell line (MTS assay), 11.4 nM; in the series with BCWM.1/BR (Homo sapiens, BCWM1, MTS assay), greater than 1000 nM; in the series on BCWM.1/BR (MTS assay) it was 720 nM. Further, the 50% inhibitory concentration (IC50) was 16.6 nM in the series with MWCL-1 cells, 65.2 nM in the series on MWCL-1/BR, 27 nM in the series with RPCI-WM1 and 125 nM in the series with RPCI-WM1/BR. Also, the “increase in growth insensitivity, BR vs WT” value in [2] is listed as greater than 100 fold. Moreover, the “chymotrypsin-like activity (LLVY) of the b5 subunit” value in [3] was “significantly diminished”. For the same compound, the “chymotryptic β5 activity” value on β5/PSMB5 is recorded as “decreased; also recorded: inhibited the chymotryptic activity; also recorded: nearly abrogated”. For the same compound, the response rate result in series [4] is recorded as “about 100%”; in the series on MCL patients, “about 75%”.

Turning to `CC(C)C[C@H](NC(=O)[C@H](CCc1ccccc1)NC(=O)CN1CCOCC1)C(=O)N[C@@H](Cc1ccccc1)C(=O)N[C@@H](CC(C)C)C(=O)[C@@]1(C)CO1` [carfilzomib], the “chymotrypsin-like activity (LLVY) of the b5 subunit” value in series [3] is on record as “significantly diminished”.

Turning to `COC(=O)C[C@H](NC(=O)[C@H](C)NC(=O)[C@@H](NC(=O)OCc1ccccc1)C(C)C)C(=O)CF` [z.VAD.fmk] (Cbz-Val-Ala-Asp(OMe)-CH2F), in the series on WT and BR WM cells, the “MOMP in b-AP15 co-treated WM cells” value was “significantly reduced MOMP”.

The values are drawn from patent US20170128518A1, “METHODS AND MATERIALS FOR IDENTIFYING AND TREATING MAMMALS RESISTANT TO PROTEASOME INHIBITOR TREATMENTS” (Mayo Foundation for Medical Education and Research, priority 2014, published 2017).
